Reference: PubChem BioAssay (NCI)
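Five compound concentrations were applied to cells in 96-well plates for 48 hours; endpoints were derived by simple linear interpolation of the resulting dose-response curve. GI50 is the concentration that inhibits growth by half. At the TGI there is no net growth.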

Legend:
Assay in all cases: growth of human tumour cells (NCI), 48 h
NCI/ADR-RES ovarian = tested on: NCI/ADR-RES ovarian
NCI-H23 lung = tested on: NCI-H23 lung
RXF 393 renal = tested on: RXF 393 renal
M14 melanoma = tested on: M14 melanoma
CCRF-CEM leukemia = tested on: CCRF-CEM leukemia
MALME-3M melanoma = tested on: MALME-3M melanoma
SK-OV-3 ovarian = tested on: SK-OV-3 ovarian
SNB-75 CNS = tested on: SNB-75 CNS
TK-10 renal = tested on: TK-10 renal
SF-295 CNS = tested on: SF-295 CNS
K-562 leukemia = tested on: K-562 leukemia
SN12C renal = tested on: SN12C renal
SF-268 CNS = tested on: SF-268 CNS
SK-MEL-2 melanoma = tested on: SK-MEL-2 melanoma
UACC-257 melanoma = tested on: UACC-257 melanoma
BT-549 breast = tested on: BT-549 breast
T-47D breast = tested on: T-47D breast
HCT-116 colon = tested on: HCT-116 colon
SK-MEL-5 melanoma = tested on: SK-MEL-5 melanoma
A549 NSCLC = tested on: A549 NSCLC
OVCAR-5 ovarian = tested on: OVCAR-5 ovarian
SNB-19 CNS = tested on: SNB-19 CNS
MCF7 breast = tested on: MCF7 breast
LOX IMVI melanoma = tested on: LOX IMVI melanoma
EKVX NSCLC = tested on: EKVX NSCLC
HS 578T breast = tested on: HS 578T breast
A498 renal = tested on: A498 renal
MDA-MB-435 = tested on: MDA-MB-435
U251 CNS = tested on: U251 CNS
HL-60(TB) leukemia = tested on: HL-60(TB) leukemia
OVCAR-4 ovarian = tested on: OVCAR-4 ovarian
SK-MEL-28 melanoma = tested on: SK-MEL-28 melanoma
UO-31 renal = tested on: UO-31 renal
HOP-62 NSCLC = tested on: HOP-62 NSCLC
HCC-2998 colon = tested on: HCC-2998 colon
HT29 colon = tested on: HT29 colon
NCI-H522 lung = tested on: NCI-H522 lung
DU-145 prostate = tested on: DU-145 prostate
NCI-H460 lung = tested on: NCI-H460 lung
OVCAR-3 ovarian = tested on: OVCAR-3 ovarian
OVCAR-8 ovarian = tested on: OVCAR-8 ovarian
SF-539 CNS = tested on: SF-539 CNS
CAKI-1 renal = tested on: CAKI-1 renal
ACHN renal = tested on: ACHN renal
HOP-92 NSCLC = tested on: HOP-92 NSCLC
786-0 renal = tested on: 786-0 renal
HCT-15 colon = tested on: HCT-15 colon
COLO 205 colon = tested on: COLO 205 colon
KM12 colon = tested on: KM12 colon
RPMI-8226 leukemia = tested on: RPMI-8226 leukemia
MOLT-4 leukemia = tested on: MOLT-4 leukemia
SW-620 colon = tested on: SW-620 colon
PC-3 prostate = tested on: PC-3 prostate
IGROV1 ovarian = tested on: IGROV1 ovarian
UACC-62 melanoma = tested on: UACC-62 melanoma
SR leukemia = tested on: SR leukemia
MDA-MB-231 breast = tested on: MDA-MB-231 breast
NCI-H226 lung = tested on: NCI-H226 lung

N#CCc1[nH]nc2nc(SCc3ccccc3)nc(N3CCCCC3)c12
TGI (NCI/ADR-RES ovarian): 32.3 µM | TGI (NCI-H23 lung): 33.1 µM | TGI (RXF 393 renal): 32.2 µM | TGI (M14 melanoma): 34.8 µM | TGI (CCRF-CEM leukemia): 33.8 µM | TGI (MALME-3M melanoma): 41.8 µM | TGI (SK-OV-3 ovarian): 45.7 µM | TGI (SNB-75 CNS): 33.7 µM | TGI (TK-10 renal): 40.5 µM | TGI (SF-295 CNS): 35.3 µM | TGI (K-562 leukemia): 34.6 µM | TGI (SN12C renal): 28.7 µM | TGI (SF-268 CNS): 36.7 µM | TGI (SK-MEL-2 melanoma): 39.3 µM | TGI (UACC-257 melanoma): 35.7 µM | TGI (BT-549 breast): 34.1 µM | TGI (T-47D breast): 39.1 µM | TGI (HCT-116 colon): 32.4 µM | TGI (SK-MEL-5 melanoma): 32.8 µM | TGI (A549 NSCLC): 34.5 µM | TGI (OVCAR-5 ovarian): 36 µM | TGI (SNB-19 CNS): 34.8 µM | TGI (MCF7 breast): 40.4 µM | TGI (LOX IMVI melanoma): 43 µM | TGI (EKVX NSCLC): 39.5 µM | TGI (HS 578T breast): 39.2 µM | TGI (A498 renal): 73.4 µM | TGI (MDA-MB-435): 35 µM | TGI (U251 CNS): 35.2 µM | TGI (HL-60(TB) leukemia): 43.6 µM | TGI (OVCAR-4 ovarian): 36.4 µM | TGI (SK-MEL-28 melanoma): 45.8 µM | TGI (UO-31 renal): 35.9 µM | TGI (HOP-62 NSCLC): 35.5 µM | TGI (HCC-2998 colon): 31.9 µM | TGI (HT29 colon): 41.4 µM | TGI (NCI-H522 lung): 37.9 µM | TGI (DU-145 prostate): 33.6 µM | TGI (NCI-H460 lung): 37.9 µM | TGI (OVCAR-3 ovarian): 37.4 µM | TGI (OVCAR-8 ovarian): > 100 µM | TGI (SF-539 CNS): 37.8 µM | TGI (CAKI-1 renal): 34.6 µM | TGI (ACHN renal): 41.5 µM | TGI (HOP-92 NSCLC): 31.6 µM | TGI (786-0 renal): 31.8 µM | TGI (HCT-15 colon): > 100 µM | TGI (COLO 205 colon): 34.7 µM | TGI (KM12 colon): 33 µM | TGI (RPMI-8226 leukemia): 43.2 µM | TGI (MOLT-4 leukemia): 37.9 µM | TGI (SW-620 colon): 35 µM | TGI (PC-3 prostate): 34 µM

O=C(/C=C/c1ccc2c(c1)OCO2)c1ccccc1
GI50 (NCI/ADR-RES ovarian): 20.6 µM | TGI (NCI/ADR-RES ovarian): 62.3 µM | GI50 (NCI-H23 lung): 17.4 µM | TGI (NCI-H23 lung): 38.6 µM | GI50 (IGROV1 ovarian): 4.43 µM | TGI (IGROV1 ovarian): 27.7 µM | GI50 (RXF 393 renal): 14.3 µM | TGI (RXF 393 renal): 28.7 µM | GI50 (M14 melanoma): 13.2 µM | TGI (M14 melanoma): 29.8 µM | GI50 (CCRF-CEM leukemia): 19.1 µM | TGI (CCRF-CEM leukemia): 81.2 µM | GI50 (MALME-3M melanoma): 13.9 µM | TGI (MALME-3M melanoma): 37.9 µM | GI50 (SK-OV-3 ovarian): 27.5 µM | TGI (SK-OV-3 ovarian): 83.1 µM | GI50 (SNB-75 CNS): 20.6 µM | TGI (SNB-75 CNS): 61.9 µM | GI50 (UACC-62 melanoma): 16.3 µM | TGI (UACC-62 melanoma): 33.7 µM | GI50 (SF-295 CNS): 11.5 µM | TGI (SF-295 CNS): 28.8 µM | GI50 (SR leukemia): 2.56 µM | TGI (SR leukemia): 13.9 µM | GI50 (K-562 leukemia): 4.42 µM | TGI (K-562 leukemia): > 100 µM | GI50 (SN12C renal): 18.6 µM | TGI (SN12C renal): 40.6 µM | GI50 (SF-268 CNS): 15 µM | TGI (SF-268 CNS): 35.6 µM | GI50 (UACC-257 melanoma): 18.6 µM | TGI (UACC-257 melanoma): 39.5 µM | GI50 (T-47D breast): 15.5 µM | TGI (T-47D breast): 39.5 µM | GI50 (HCT-116 colon): 3.74 µM | TGI (HCT-116 colon): 14.1 µM | GI50 (SK-MEL-5 melanoma): 15.6 µM | TGI (SK-MEL-5 melanoma): 29.4 µM | GI50 (A549 NSCLC): 18.7 µM | TGI (A549 NSCLC): 49 µM | GI50 (OVCAR-5 ovarian): 16.2 µM | TGI (OVCAR-5 ovarian): 36.8 µM | GI50 (SNB-19 CNS): 15.1 µM | TGI (SNB-19 CNS): 32.1 µM | GI50 (MCF7 breast): 4.02 µM | TGI (MCF7 breast): 30 µM | GI50 (LOX IMVI melanoma): 12.6 µM | TGI (LOX IMVI melanoma): 25.9 µM | GI50 (EKVX NSCLC): 15.1 µM | TGI (EKVX NSCLC): 31.1 µM | GI50 (HS 578T breast): 11.8 µM | TGI (HS 578T breast): 45.6 µM | GI50 (A498 renal): 12.4 µM | TGI (A498 renal): 25.4 µM | GI50 (MDA-MB-435): 3.58 µM | TGI (MDA-MB-435): 19.3 µM | GI50 (U251 CNS): 5.62 µM | TGI (U251 CNS): 19 µM | GI50 (HL-60(TB) leukemia): 17.8 µM | TGI (HL-60(TB) leukemia): 61.6 µM | GI50 (OVCAR-4 ovarian): 24.8 µM | TGI (OVCAR-4 ovarian): > 100 µM | GI50 (SK-MEL-28 melanoma): 19.5 µM | TGI (SK-MEL-28 melanoma): 41.4 µM | GI50 (UO-31 renal): 4.19 µM | TGI (UO-31 renal): 18.9 µM | GI50 (HOP-62 NSCLC): 23.9 µM | TGI (HOP-62 NSCLC): 80.9 µM | GI50 (MDA-MB-231 breast): 24.4 µM | TGI (MDA-MB-231 breast): 75.6 µM | GI50 (HCC-2998 colon): 16 µM | TGI (HCC-2998 colon): 30.2 µM | GI50 (DU-145 prostate): 10.2 µM | TGI (DU-145 prostate): 22.1 µM | GI50 (NCI-H460 lung): 13.9 µM | TGI (NCI-H460 lung): 37.5 µM | GI50 (OVCAR-3 ovarian): 4.71 µM | TGI (OVCAR-3 ovarian): 17.9 µM | GI50 (OVCAR-8 ovarian): 17.4 µM | TGI (OVCAR-8 ovarian): 58.5 µM | GI50 (SF-539 CNS): 20.5 µM | TGI (SF-539 CNS): 54.5 µM | GI50 (CAKI-1 renal): 6.9 µM | TGI (CAKI-1 renal): 23 µM | GI50 (ACHN renal): 17.5 µM | TGI (ACHN renal): 40.9 µM | GI50 (HOP-92 NSCLC): 15.4 µM | TGI (HOP-92 NSCLC): 41.3 µM | GI50 (786-0 renal): 14.8 µM | TGI (786-0 renal): 31 µM | GI50 (HCT-15 colon): 16.6 µM | TGI (HCT-15 colon): > 100 µM | GI50 (COLO 205 colon): 19.1 µM | TGI (COLO 205 colon): 36.7 µM | GI50 (KM12 colon): 3.02 µM | TGI (KM12 colon): 14 µM | GI50 (RPMI-8226 leukemia): 4.84 µM | TGI (RPMI-8226 leukemia): > 100 µM | GI50 (NCI-H226 lung): 23.4 µM | TGI (NCI-H226 lung): 78.5 µM | GI50 (MOLT-4 leukemia): 8.09 µM | TGI (MOLT-4 leukemia): > 100 µM | GI50 (SW-620 colon): 3.72 µM | TGI (SW-620 colon): 14.5 µM | GI50 (PC-3 prostate): 22.5 µM | TGI (PC-3 prostate): 58.4 µM
